We go through ten compounds from patent US6391882B1, “4,5,6 and 7-indole and indoline derivatitives, their preparation and use” (H. Lundbeck A/S, priority 1998, dated 2002).

Where two headings read alike, the source gives them in different places.

One may read the IC50 as the point on the concentration scale where inhibition reaches its midpoint. One may read the melting point as the temperature of the solid-liquid transition.

Series [1] concerns the target T1, Serotonin reuptake (whole rat brain synaptosomes) (Rattus norvegicus, UniProt P31652).
T1 construct: from tissue; host or cells: whole rat brain synaptosomes
In words: Inhibition of 3H-5-HT uptake into rat brain synaptosomes. The format is biochemical. As to the method: Inhibition of ^3H-5-HT Uptake Into Rat Brain Synaptosomes
Using this method the ability of drugs to inhibit the accumulation of ^3H-5-HT into whole rat brain synaptosomes is determined in vitro.

Series [2] concerns the target T2, cloned human 5-HT1A receptors (Homo sapiens, UniProt P08908).
T2 construct: expressed in transfected cells; host or cells: HeLa cells (HA7)
T2 sequence (P08908 1-422): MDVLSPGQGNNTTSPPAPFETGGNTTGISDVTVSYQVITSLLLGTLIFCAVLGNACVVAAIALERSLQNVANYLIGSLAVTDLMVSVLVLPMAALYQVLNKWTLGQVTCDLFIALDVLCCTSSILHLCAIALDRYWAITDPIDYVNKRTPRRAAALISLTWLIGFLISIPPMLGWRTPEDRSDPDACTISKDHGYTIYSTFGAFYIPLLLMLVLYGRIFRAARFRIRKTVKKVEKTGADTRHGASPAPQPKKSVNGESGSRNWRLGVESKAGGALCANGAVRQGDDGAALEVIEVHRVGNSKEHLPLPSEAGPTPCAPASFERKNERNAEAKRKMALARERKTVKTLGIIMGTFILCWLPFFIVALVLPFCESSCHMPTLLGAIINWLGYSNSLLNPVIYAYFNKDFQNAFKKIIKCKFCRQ
In words: Inhibition of 3H-5-CT binding to human 5-HT1A receptors. The note with it: cloned human 5-HT1A receptors in transfected HeLa cells (HA7), 15 minutes at 37° C., pH 7.7. The method, then:
The affinity of the compounds of the invention to 5-HT1A receptors was determined by measuring the inhibition of binding of a radioactive ligand at 5-HT1A receptors as described in the following test:
Inhibition of ^3H-5-CT Binding to Human 5HT1A Receptors
By this method the inhibition by drugs of the binding of the 5-HT1A agonist ^3H-5-carboxamido tryptamine (^3H-5-CT) to cloned human 5-HT1A receptors stably expressed in transfected HeLa cells (HA7) (Fargin, A. et al, J. Biol. Chem., 1989, 264, 14848) is determined in vitro. The assay was performed as a modification of the method described by Harrington, M. A. et al, J. Pharmacol. Exp. Ther., 1994, 268, 1098. Human 5-HT1A receptors (40 μg of cell homogenate) were incubated for 15 minutes at 37° C. in 50 mM Tris buffer at pH 7.7 in the presence of ^3H-5-CT. Non-specific binding was determined by including 10 μM of metergoline. The reaction was terminated by rapid filtration through Unifilter GF/B filters on a Tomtec Cell Harvester. Filters were counted in a Packard Top Counter.

T1 sequence (P31652 whole entry): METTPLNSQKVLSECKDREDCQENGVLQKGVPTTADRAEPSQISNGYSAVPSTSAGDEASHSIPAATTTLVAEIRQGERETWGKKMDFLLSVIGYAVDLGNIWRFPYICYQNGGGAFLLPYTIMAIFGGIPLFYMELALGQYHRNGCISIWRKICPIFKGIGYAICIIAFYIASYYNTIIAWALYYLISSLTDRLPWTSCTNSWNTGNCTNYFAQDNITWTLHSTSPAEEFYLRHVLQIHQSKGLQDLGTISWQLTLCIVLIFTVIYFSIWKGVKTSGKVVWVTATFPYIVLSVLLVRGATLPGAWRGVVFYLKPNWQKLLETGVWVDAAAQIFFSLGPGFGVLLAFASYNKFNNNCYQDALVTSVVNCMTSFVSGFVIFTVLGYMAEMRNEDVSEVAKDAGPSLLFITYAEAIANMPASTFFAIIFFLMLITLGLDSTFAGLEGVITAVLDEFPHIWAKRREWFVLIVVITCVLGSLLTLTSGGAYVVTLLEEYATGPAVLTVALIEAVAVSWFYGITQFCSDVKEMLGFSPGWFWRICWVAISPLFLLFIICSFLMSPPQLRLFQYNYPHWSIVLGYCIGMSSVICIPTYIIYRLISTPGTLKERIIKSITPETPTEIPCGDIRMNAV

`OCc1cc(N2CCN(CCc3c[nH]c4cc(Cl)ccc34)CC2)c2cc[nH]c2c1` [Compound 3b, 1-(2-(6-Chloro-1H-indol-3-yl)ethyl)-4-(6-hydroxymethyl-1H-indol-4-yl)piperazine]: the melting point was in the range of 194 to 196 °C. Further, in series [1], the IC50 is 33 nM. The same compound returned a concentration for half-maximal inhibition (IC50) in series [2] of 120 nM.
In the case of `OCc1cc(N2CCN(CCc3c[nH]c4ccc(Br)cc34)CC2)c2cc[nH]c2c1` [Compound 3c, 1-(2-(5-Bromo-1H-indol-3-yl)ethyl)-4-(6-hydroxymethyl-1H-indol-4-yl)piperazine], the melting point is 163 to 165 °C. Moreover, the concentration for half-maximal inhibition (IC50) in series [1] is 46 nM. The same compound returned an IC50 in series [2] of 1000 nM.
For the compound `N#Cc1c[nH]c2cccc(N3CCN(CCc4coc5ccccc45)CC3)c12` [Compound 4p, 1-(2-(3-Benzofuranyl)ethyl)-4-(3-cyano-1H-indol-4-yl)piperazine], the IC50 stood at 22 nM in series [1] (3H-5-HT accumulation into whole rat brain synaptosomes, in vitro, read-out: Inhibition of Serotonin reuptake IC50) and 4.3 nM in series [2].
In the case of `Cc1ccc2occ(CCN3CCN(c4cccc5[nH]ccc45)CC3)c2c1` [Compound 4q, 1-(1H-Indol-4-yl)-4-(2-(5-methyl-3-benzofuranyl)ethyl)piperazine], the results for the half-maximal inhibitory concentration (IC50) in series [1] and in series [2] were 34 nM and 21 nM, respectively.
The like results for `Cc1cccc2occ(CCN3CCN(c4cccc5[nH]ccc45)CC3)c12` [Compound 4r, 1-(1H-Indol-4-yl)-4-(2-(4-methyl-3-benzofuranyl)ethyl)piperazine] were, in that order, 12 nM and 10 nM.
The like results for `Fc1ccc2occ(CCCN3CC=C(c4cccc5[nH]ccc45)CC3)c2c1` [Compound 4s, 1-(3-(5-Fluoro-3-benzofuranyl)-1-propyl)-4-(1H-indol-4-yl)-1,2,3,6-tetrahydropyridine] were, in that order, 24 nM and 16 nM.
The like results for `Clc1ccc2occ(CCN3CCN(c4cccc5[nH]ccc45)CC3)c2c1` [Compound 4t, 1-(2-(5-Chloro-3-benzofuranyl)ethyl)-4-(1H-indol-4-yl)piperazine] were, in that order, 99 nM and 9.4 nM.
On to `Cc1ccc2c(CCN3CCN(c4cccc5[nH]ccc45)CC3)coc2c1` [Compound 4u, 1-(1H-Indol-4-yl)-4-(2-(6-methyl-3-benzofuranyl)ethyl)piperazine], for which the figures for the half-maximal inhibitory concentration (IC50) in series [1] and in series [2] were 93 nM and 7 nM, respectively.
Taken in the same sequence, the figures for `Clc1cccc2c(CCN3CCN(c4cccc5[nH]ccc45)CC3)coc12` [Compound 4v, 1-(2-(7-Chloro-3-benzofuranyl)ethyl)-4-(1H-indol-4-yl)piperazine] were 4.4 nM and 4.3 nM.
The like results for `Clc1ccc2c(CCN3CCC(c4cccc5[nH]ccc45)CC3)c[nH]c2c1` [Compound 5a] were, in that order, 19 nM and 14 nM.
